What all share (format): biochemical
The target of one test is T1, human Src enzyme (Homo sapiens, UniProt P12931).
T1 construct: purchased Carna Biosciences, Inc. 08-173
Briefly: Src enzyme inhibitory activity (time-resolved fluorometry, biotinylated peptide phosphorylation). To be noted: read-out: SRC_IC50. Here is the method:
(§1) 2. Src Enzyme Inhibitory Activity Src inhibitory activity was determined based on activity of inhibiting phosphorylation reaction of a biotinylated peptide (EGPWLEEEEEAYGWMDF) using a human Src enzyme (manufactured by Carna Biosciences, Inc., cat 08-173). The phosphorylated biotinylated peptide was detected by time-resolved fluorometry using an anti-phosphorylated tyrosine antibody conjugated to europium cryptate, and streptavidin conjugated to XL665, an allophycocyanin derivative. The 50% inhibitory concentration (IC50) was calculated from the inhibition rate relative to the control group without containing the test substance.

For the next test, the target named is T2, human Yes1 enzyme (Homo sapiens, UniProt P07947).
T2 construct: made in house
In words: Yes1 enzyme inhibitory activity (time-resolved fluorometry, biotinylated peptide phosphorylation). To be noted: read-out: YES_IC50. As for the experimental part:
as §1, with “1. Yes1” for “2. Src”, “Yes1” for “Src”, “prepared using a baculovirus expression system.” for “(manufactured by Carna Biosciences, Inc., cat 08-173).”

The next test addresses T3, human Lck enzyme (Homo sapiens, UniProt P06239).
T3 construct: purchased Carna Biosciences, Inc. 08-170
In words: Lck enzyme inhibitory activity (time-resolved fluorometry, biotinylated peptide phosphorylation). The conditions noted are these: read-out: LCK_IC50. Here is the method:
as §1, with “3. Lck” for “2. Src”, “Lck” for “Src”, “08-170).” for “08-173).”

[1] abbreviates: biotinylated peptide phosphorylation.

SMILES strings stand for the structures. Read-outs that look alike come from different tables or passages of the source.

T2 sequence (P07947 whole entry): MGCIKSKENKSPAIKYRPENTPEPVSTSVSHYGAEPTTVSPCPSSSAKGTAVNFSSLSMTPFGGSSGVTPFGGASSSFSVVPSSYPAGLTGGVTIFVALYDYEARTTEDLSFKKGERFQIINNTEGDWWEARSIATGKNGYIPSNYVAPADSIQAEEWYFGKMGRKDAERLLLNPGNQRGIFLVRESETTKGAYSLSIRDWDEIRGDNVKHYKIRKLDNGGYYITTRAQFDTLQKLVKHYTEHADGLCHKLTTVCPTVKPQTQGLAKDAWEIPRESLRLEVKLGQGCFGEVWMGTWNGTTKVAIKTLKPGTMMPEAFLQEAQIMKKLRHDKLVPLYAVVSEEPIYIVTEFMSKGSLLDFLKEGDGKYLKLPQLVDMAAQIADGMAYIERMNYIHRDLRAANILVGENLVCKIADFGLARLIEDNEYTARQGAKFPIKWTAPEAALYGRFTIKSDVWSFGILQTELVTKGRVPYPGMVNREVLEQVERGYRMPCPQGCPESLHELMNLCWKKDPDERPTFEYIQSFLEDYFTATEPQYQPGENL
T1 sequence (P12931 whole entry): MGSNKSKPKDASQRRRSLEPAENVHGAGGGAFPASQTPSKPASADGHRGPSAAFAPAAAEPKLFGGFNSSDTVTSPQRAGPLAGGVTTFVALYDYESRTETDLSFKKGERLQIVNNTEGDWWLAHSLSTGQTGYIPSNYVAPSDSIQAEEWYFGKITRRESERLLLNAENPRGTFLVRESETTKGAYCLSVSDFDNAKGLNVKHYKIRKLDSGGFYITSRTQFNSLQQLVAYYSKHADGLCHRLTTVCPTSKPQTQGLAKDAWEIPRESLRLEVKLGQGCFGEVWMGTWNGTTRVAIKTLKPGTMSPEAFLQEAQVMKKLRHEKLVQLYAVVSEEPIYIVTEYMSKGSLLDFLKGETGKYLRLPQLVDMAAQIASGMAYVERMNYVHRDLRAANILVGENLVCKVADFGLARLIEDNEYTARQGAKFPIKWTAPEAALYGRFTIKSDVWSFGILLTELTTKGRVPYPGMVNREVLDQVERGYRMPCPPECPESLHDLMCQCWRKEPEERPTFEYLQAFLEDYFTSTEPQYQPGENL
T3 sequence (P06239 whole entry): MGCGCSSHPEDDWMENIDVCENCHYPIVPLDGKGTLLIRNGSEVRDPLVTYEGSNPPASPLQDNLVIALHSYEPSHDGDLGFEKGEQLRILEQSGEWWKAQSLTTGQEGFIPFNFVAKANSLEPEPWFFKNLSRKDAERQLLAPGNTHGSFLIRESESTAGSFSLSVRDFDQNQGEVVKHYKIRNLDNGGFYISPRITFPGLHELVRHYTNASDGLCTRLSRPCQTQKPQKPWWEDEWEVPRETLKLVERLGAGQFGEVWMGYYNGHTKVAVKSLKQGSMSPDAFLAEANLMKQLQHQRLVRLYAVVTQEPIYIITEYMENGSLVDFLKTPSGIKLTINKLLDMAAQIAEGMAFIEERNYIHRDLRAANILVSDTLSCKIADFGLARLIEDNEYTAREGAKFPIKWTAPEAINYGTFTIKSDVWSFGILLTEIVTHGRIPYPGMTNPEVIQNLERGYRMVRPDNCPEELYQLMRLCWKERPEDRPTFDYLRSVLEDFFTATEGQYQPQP

Turning to `Cc1cc(Oc2ccccc2F)ccc1-n1ncc(C(=O)c2cc3cc(F)c(NS(=O)(=O)CC(=O)N4CCOCC4)cc3[nH]2)c1N` [Example 4-10-004, N-[2-[5-amino-1-[4-(2-fluorophenoxy)-2-methylphenyl]pyrazole-4-carbonyl]-5-fluoro-1H-indol-6-yl]-2-morpholin-4-yl-2-oxoethanesulfonamide], the results for the IC50 at human Src enzyme (setting [1]), on human Yes1 enzyme (setting [1]) and at human Lck enzyme (setting [1]) were 12 nM, 0.53 nM and 8.3 nM, respectively.

In the case of `Cc1cc(Oc2ccccc2F)ccc1-n1ncc(C(=O)c2cc3cc(OC(F)F)c(Br)cc3[nH]2)c1N` [Example 5-1-082, [5-amino-1-[4-(2-fluorophenoxy)-2-methylphenyl]pyrazol-4-yl]-[6-bromo-5-(difluoromethoxy)-1H-indol-2-yl]methanone], the IC50 was determined as 26 nM on human Src enzyme, 1.9 nM on human Yes1 enzyme and 11 nM at human Lck enzyme.

Take `Cc1cc2cc(C(=O)c3cnn(-c4ccc(Oc5ccccc5F)cc4C)c3N)[nH]c2cc1N1C(=O)N[C@@H](C)C1=O` [Example 5-1-444, (5S)-3-[2-[5-amino-1-[4-(2-fluorophenoxy)-2-methylphenyl]pyrazole-4-carbonyl]-5-methyl-1H-indol-6-yl]-5-methylimidazolidine-2,4-dione]: the IC50 came out at 13 nM at human Src enzyme (setting [1]), 0.65 nM on human Yes1 enzyme (setting [1]) and 3.9 nM on human Lck enzyme (setting [1]).

For the compound `Cc1cc(Oc2ccccc2F)ccc1-n1ncc(C(=O)c2cc3cc(OCC(F)F)c(N4CCC(O)CC4)cc3[nH]2)c1N` [Example 5-1-087, [5-amino-1-[4-(2-fluorophenoxy)-2-methylphenyl]pyrazol-4-yl]-[5-(2,2-difluoroethoxy)-6-(4-hydroxypiperidin-1-yl)-1H-indol-2-yl]methanone], the IC50 at human Src enzyme came out at 13 nM; on human Yes1 enzyme, 0.77 nM; at human Lck enzyme, 3.9 nM.

Regarding `Cc1cc(Oc2ccccc2F)ncc1-n1ncc(C(=O)c2cc3cc(F)c(NS(=O)(=O)CC(=O)NC(C)C)cc3[nH]2)c1N` [Example 5-1-056, 2-[[2-[5-amino-1-[6-(2-fluorophenoxy)-4-methylpyridin-3-yl]pyrazole-4-carbonyl]-5-fluoro-1H-indol-6-yl]sulfamoyl]-N-propan-2-ylacetamide], the results for the IC50 on human Src enzyme, at human Yes1 enzyme and at human Lck enzyme were 76 nM, 1.7 nM and 24 nM, respectively.

With `Cc1cc(Oc2ccccc2F)ccc1-n1ncc(C(=O)c2cc3cc(F)c(-n4c(C)cc(=O)[nH]c4=O)cc3[nH]2)c1N` [Example 5-1-104, 1-[2-[5-amino-1-[4-(2-fluorophenoxy)-2-methylphenyl]pyrazole-4-carbonyl]-5-fluoro-1H-indol-6-yl]-6-methylpyrimidine-2,4-dione], the values for the IC50 on human Src enzyme, at human Yes1 enzyme and on human Lck enzyme were 9.7 nM, 0.63 nM and 1.1 nM, respectively.

`Cc1cc(Oc2ccccc2F)ccc1-n1ncc(C(=O)c2cc3cc(OCCN4[C@@H]5CC[C@H]4COC5)c(NS(C)(=O)=O)cc3[nH]2)c1N` [Example 4-24-039, N-[2-[5-amino-1-[4-(2-fluorophenoxy)-2-methylphenyl]pyrazole-4-carbonyl]-5-[2-[(1S,5R)-3-oxa-8-azabicyclo[3.2.1]octan-8-yl]ethoxy]-1H-indol-6-yl]methanesulfonamide]: the IC50 at human Src enzyme (setting [1]) came out at 8.3 nM; on human Yes1 enzyme (setting [1]), 0.46 nM; on human Lck enzyme (setting [1]), 2.8 nM.

Turning to `Cc1cc(-n2ncc(C(=O)c3cc4cc(OC(F)F)c(N5C(=O)NC(C)(C)C5=O)cc4[nH]3)c2N)ccc1Oc1ccccc1F` [Example 5-1-179, 3-[2-[5-amino-1-[4-(2-fluorophenoxy)-3-methylphenyl]pyrazole-4-carbonyl]-5-(difluoromethoxy)-1H-indol-6-yl]-5,5-dimethylimidazolidine-2,4-dione], the IC50 amounted to 810 nM on human Src enzyme, 4 nM at human Yes1 enzyme and 180 nM on human Lck enzyme.

As to `Cc1cc2cc(C(=O)c3cnn(-c4cnc(Oc5c(F)cccc5F)cc4C)c3N)[nH]c2cc1C1CCN(S(C)(=O)=O)CC1` [Example 5-1-091, [5-amino-1-[6-(2,6-difluorophenoxy)-4-methylpyridin-3-yl]pyrazol-4-yl]-[5-methyl-6-(1-methylsulfonylpiperidin-4-yl)-1H-indol-2-yl] methanone], the IC50 on human Src enzyme stood at 24 nM; at human Yes1 enzyme, 3.2 nM; on human Lck enzyme, 3.7 nM.

As for `Cc1cc(Oc2c(F)cccc2F)ncc1-n1ncc(C(=O)c2cc3cc(OCC(F)F)c(C4CCN(S(C)(=O)=O)CC4)cc3[nH]2)c1N` [Example 4-17-023, [5-amino-1-[6-(2,6-difluorophenoxy)-4-methylpyridin-3-yl]pyrazol-4-yl]-[5-(2,2-difluoroethoxy)-6-(1-methylsulfonylpiperidin-4-yl)-1H-indol-2-yl]methanone], the IC50 at human Src enzyme (setting [1]) was determined as 27 nM; on human Yes1 enzyme (setting [1]) it was 6.8 nM; at human Lck enzyme (setting [1]), 21 nM.

For the compound `Cc1cc(Oc2ccccc2F)ccc1-n1ncc(C(=O)c2cc3cc(OC4CCN(C(C)C)CC4)c(N4C(=O)NC(C)(C)C4=O)cc3[nH]2)c1N` [Example 5-1-193, 3-[2-[5-amino-1-[4-(2-fluorophenoxy)-2-methylphenyl]pyrazole-4-carbonyl]-5-(1-propan-2-ylpiperidin-4-yl)oxy-1H-indol-6-yl]-6,5-dimethylimidazolidine-2,4-dione], the figures for the IC50 on human Src enzyme, at human Yes1 enzyme and at human Lck enzyme were 2.3 nM, 0.32 nM and 1.3 nM, respectively.

`Cc1cc(-n2ncc(C(=O)c3cc4cc(OCC(F)F)c(C5CCOCC5)cc4[nH]3)c2N)ccc1Oc1ccccc1F` [Example 5-1-258, [5-amino-1-[4-(2-fluorophenoxy)-3-methylphenyl]pyrazol-4-yl]-[5-(2,2-difluoroethoxy)-6-(oxan-4-yl)-1H-indol-2-yl] methanone]: the IC50 on human Src enzyme amounted to 2900 nM; on human Yes1 enzyme, 18 nM; on human Lck enzyme it was 720 nM.

Consider `COc1cc2cc(C(=O)c3cnn(-c4cnc(Oc5ccccc5F)cc4C)c3N)[nH]c2cc1N1CCCS1(=O)=O` [Example 4-14-001, {5-amino-1-[6-(2-fluorophenoxy)-4-methylpyridin-3-yl]pyrazol-4-yl}-[6-(1,1-dioxo-1,2-thiazolidin-2-yl)-5-methoxy-1H-indol-2-yl]methanone], for which the figures for the IC50 on human Src enzyme (setting [1]), at human Yes1 enzyme (setting [1]) and on human Lck enzyme (setting [1]) were 21 nM, 1.2 nM and 5.8 nM, respectively.

In the case of `Cc1cc(Oc2c(F)cccc2F)ncc1-n1ncc(C(=O)c2cc3cc(F)c(NS(=O)(=O)c4cccc(C#N)n4)cc3[nH]2)c1N` [Example 5-1-538, N-[2-[5-amino-1-[6-(2,6-difluorophenoxy)-4-methylpyridin-3-yl]pyrazole-4-carbonyl]-5-fluoro-1H-indol-6-yl]-6-cyanopyridine-2-sulfonamide], the results for the IC50 at human Src enzyme (setting [1]), at human Yes1 enzyme (setting [1]) and at human Lck enzyme (setting [1]) were 680 nM, 9.6 nM and 140 nM, respectively.

Consider `Cc1cc(Oc2c(F)cccc2F)ncc1-n1ncc(C(=O)c2cc3cc(OC4CCN(C(C)C)CC4)c(N4CCOC4=O)cc3[nH]2)c1N` [Example 5-1-186, 3-[2-[5-amino-1-[6-(2,6-difluorophenoxy)-4-methylpyridin-3-yl]pyrazole-4-carbonyl]-5-(1-propan-2-ylpiperidin-4-yl)oxy-1H-indol-6-yl]-1,3-oxazolidin-2-one], for which the IC50 was 1.9 nM at human Src enzyme, 0.28 nM on human Yes1 enzyme and 1.3 nM on human Lck enzyme.

As for `Cc1cc(Oc2c(F)cccc2F)ncc1-n1ncc(C(=O)c2cc3cc(F)c(N4C(=O)N[C@@H](CO)C4=O)cc3[nH]2)c1N` [Example 5-1-407, (5S)-3-[2-[5-amino-1-[6-(2,6-difluorophenoxy)-4-methylpyridin-3-yl]pyrazole-4-carbonyl]-5-fluoro-1H-indol-6-yl]-5-(hydroxymethyl) imidazolidine-2,4-dione], the IC50 amounted to 74 nM at human Src enzyme (setting [1]), 2.2 nM at human Yes1 enzyme (setting [1]) and 3.5 nM at human Lck enzyme (setting [1]).

As for `Cc1cc(-n2ncc(C(=O)c3cc4cc(OC5CCN(C(C)C)CC5)c(F)cc4[nH]3)c2N)ccc1Oc1ccccc1F` [Example 5-1-195, [5-amino-1-[4-(2-fluorophenoxy)-3-methylphenyl]pyrazol-4-yl]-[6-fluoro-5-(1-propan-2-ylpiperidin-4-yl)oxy-1H-indol-2-yl] methanone], the IC50 on human Src enzyme is 190 nM; at human Yes1 enzyme, 1.3 nM; at human Lck enzyme, 45 nM.

With `COc1cc2cc(C(=O)c3cnn(-c4cnc(Oc5c(F)cccc5F)cc4C)c3N)[nH]c2cc1NS(=O)(=O)CC(=O)N1CCCC1` [Example 4-10-017, N-[2-[5-amino-1-[6-(2,6-difluorophenoxy)-4-methylpyridin-3-yl]pyrazole-4-carbonyl]-5-methoxy-1H-indol-6-yl]-2-oxo-2-pyrrolidin-1-ylethanesulfonamide], the IC50 at human Src enzyme (setting [1]) was found to be 32 nM; on human Yes1 enzyme (setting [1]), 0.93 nM; at human Lck enzyme (setting [1]) it was 11 nM.

The values above are taken from patent publication US10479780B2, “Aminopyrazole derivatives” (Chugai Seiyaku Kabushiki Kaisha, priority 2015, dated 2019).
